System: A549 cells
Experiment: translational efficiency of mRNAs capped with the analogs in A549 cells (Gaussia luciferase)
Format: cell-based
Settings: mRNA capped with the analog; Gaussia luciferase activity in A549 cells 72 h post-transfection; normalized to m^7GpppG RNA
Protocol: Finally, we tested the properties of arylmethyl cap analogs as reagents for co-transcriptional mRNA capping. […] Here, we sought to evaluate the translational properties of mRNAs capped with N7-arylmethyl analogs in cultured cells. To that end, the translation properties of transcripts capped with selected analogs were assessed in A549 cells. In vitro transcribed mRNAs encoding Gaussia luciferase, capped with compounds 1a–1k, 1m–1n, and 1p–1r or with reference analogues m^7GpppG and ARCA (m^7GmpppG), were purified via RP HPLC, transfected into A549 cells, and the protein activity (luminescence) was measured using a reporter assay at 72 h post-transfection. The total amount of protein produced over 72 h from each capped RNA was normalized to m^7GpppG RNA (Figure 6 and Figure S4). […] Namely, replacing the N7-methyl group with a benzyl moiety (1a) increased protein production over fivefold in A549 cells compared to m^7GpppG-capped mRNA (Figure 6).
The influence of N7-arylmethylated dinucleotide 5′ cap analogues on the translational properties of HPLC-purified IVT mRNA is shown in Figure S4, Measurements are total protein produced over 72 h by A549 cells transfected with capped mRNAs. Each plot in Figure S4 represents a single experiment consisting of three independent transfections of the cells at the same passage. Bars show mean value normalized to […] ± SD. In the main manuscript, all nine data points from three different cell passages were combined to present cumulative protein expression.

Substance: m^7GmpppG [reference compound]
- Rel. Protein Expression: 8.6 ± 1.0

From paper PMC8623273, “Novel N7-Arylmethyl Substituted Dinucleotide mRNA 5′ cap Analogs: Synthesis and Evaluation as Modulators of Translation” (Pharmaceutics, 2021)
